Tests used:
[1] = system: rat; parameters: lethal dose LD50: unit not given here; details: cited from earlier work
[2] = system: HeLa cells; assay: Drug cellular uptake by confocal microscopy; format: cell-based; details: 24 h incubation; frameworks 0.5 mg/mL, free calcein 0.075 mg/mL
Procedure: HeLa cells were seeded in a NUNC™ imaging four-well plate at a density of 1.11×10^5 cell/mL and incubated for 24 h at 37° C. with 5% CO2 in DMEM supplemented with 10% (v/v) Fetal Bovine Serum (FBS), 2 mM L-glutamine, 100 units/mL penicillin and 100 μg/mL streptomycin.
The cells were washed twice with PBS and incubated together with calcein-loaded crystalline Zr-containing metal-organic frameworks (0.5 mg/mL) for 24 h. The amorphous frameworks were obtained by mechanical amorphization of calcein-loaded crystalline Zr-containing metal-organic frameworks. The metal-organic frameworks were well-dispersed in culture media before they were added to the cells.
Untreated cell and free calcein (at a concentration of 0.075 mg/mL) were included as controls.
After incubation for 24 h, the cells were washed several times to remove the non-internalized particles. Cells then were incubated for 15 min with Hoechst 33342 (H33342) and 1× of CellMask™ Orange to stain the nucleus and cell membrane, respectively (each dye provided at a concentration of 5 μg/mL). The cells were then washed extensively to remove the dyes and fresh media (without phenol red) was added to each sample. Finally, the plate was placed on a Leica TCS SP5 confocal microscope for imaging. The microscope was equipped with 405 diode, argon and HeNe lasers. Leica LAS AF software was used to analyse the images.

Row | Compound | lethal dose LD50 ([1]; in rats) | oral lethal dose, LD50 ([1]; oral, rat model) | calcein signal in HeLa cells by confocal microscopy [2]
1 | CC(=O)[O-].CC(=O)[O-].[O-2].[Zr+4] [zirconyl acetate] | ~4.1 | around 4.1 g/kg | –
2 | O=C(O)CN(CC(=O)O)Cc1cc2c(cc1O)Oc1cc(O)c(CN(CC(=O)O)CC(=O)O)cc1C21OC(=O)c2ccccc21 [calcein] | – | – | stained weakly in the form of bright vesicles
